How the values were obtained:
GCase polypeptide = molecular target: T1, GCase polypeptide (Homo sapiens, UniProt P04062); experiment: GCase polypeptide levels and post-ER forms by western blot in human iPS dopamine neurons; format: cell-based; conditions: wild-type neurons from an unaffected control; 100 μM IFG for 5 days followed by 1 day wash-out
T1 construct: endogenous in cells; host or cells: human iPS-derived midbrain dopamine neurons (healthy control; PD patient with SNCA triplication, Coriell ND27760)
T1 sequence (P04062 40-536): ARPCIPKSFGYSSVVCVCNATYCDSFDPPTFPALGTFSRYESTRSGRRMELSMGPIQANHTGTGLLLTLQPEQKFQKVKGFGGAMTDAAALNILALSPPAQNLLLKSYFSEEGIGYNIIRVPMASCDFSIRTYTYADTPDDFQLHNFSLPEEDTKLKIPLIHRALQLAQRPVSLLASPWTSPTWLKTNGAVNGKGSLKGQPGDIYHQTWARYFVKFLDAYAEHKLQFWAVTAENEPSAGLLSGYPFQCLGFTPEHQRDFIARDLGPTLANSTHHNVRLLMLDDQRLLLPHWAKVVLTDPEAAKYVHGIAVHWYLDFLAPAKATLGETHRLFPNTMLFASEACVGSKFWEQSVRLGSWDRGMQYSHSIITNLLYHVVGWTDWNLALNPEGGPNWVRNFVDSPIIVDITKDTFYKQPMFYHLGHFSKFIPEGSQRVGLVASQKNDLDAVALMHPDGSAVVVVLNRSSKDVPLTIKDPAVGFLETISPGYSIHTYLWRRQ
Method: (§1) In this Example, human dopamine neurons generated from iPS cells of an unaffected control were treated with a pharmacological chaperone activator of GCase polypeptide, isofagomine (IFG). […] Treatment of wild-type neurons with 100 μM IFG for 5 days followed by 1 day wash-out increased the levels of GCase polypeptide (FIGS. 15A and 15B). This increase was likely due to the fact that wild-type GCase polypeptide was occasionally misfolded in the ER and degraded (about 30% of the total made in the ER), and IFG appeared to also stabilize the wild-type misfolded forms.
It was also shown in this Example that treatment with the GCase polypeptide activator increased the levels of total GCase protein and increased the post-ER forms, indicating enhancement of flux to the lysosome (FIG. 19B).
In this Example, the effect of combining the GCase polypeptide pharmacological chaperone IFG with the antioxidant n-acetyl-cysteine (NAC) on GCase polypeptide maturation in PD iPS neurons was tested. Neurons were treated with either IFG, NAC, or IFG and NAC together, and GCase polypeptide maturation was analyzed by western blot.
Most materials for SDS-PAGE were obtained from Invitrogen (NuPAGE system). Protein lysates were boiled in sample buffer (20 mM Tris, 1% (v/v) glycerol, 180 mM β-mercaptoethanol, 0.003% (w/v) bromophenol blue, 2% (w/v) SDS, pH 6.8), resolved on 4%-12% Bis-Tris polyacrylamide precast gels in a MOPS-SDS running buffer, or 4%-12% Tris-Glycine gels. 10% Tris-Glycine gels were utilized for some GCase polypeptide western blot's (FIGS. 13B, 13D, and 13E, and FIGS. 14C and 14F). […] Blots were blocked in Odyssey blocking buffer (Li-Cor biosciences) containing 0.05% Tween, or 5% non-fat dry milk in TBS-T 0.2%, followed by incubation with primary antibodies (see above for dilutions), and detected with anti-mouse or -rabbit IgG conjugated to IRDye 680 or 800 (1:10,000, Li-Cor biosciences). […] Any nonspecific bands detected were not included in densitometric analyses. […]

[1] = tested on: human dopamine neurons generated from iPS cells; experiment: Proteolysis by radioactive pulse-chase in human iPS dopamine neurons; format: cell-based; conditions: wild-type neurons; 100 μM IFG 5 days, 1 day wash-out
Method: as §1
In this Example, it was further determined if the effects discussed above could also be replicated with non-native site binding compounds that can act as allosteric activators of GCase polypeptide, and therefore unlike IFG, would not require a washout to activate GCase polypeptide. […]
Proteolysis of long-lived proteins was determined by radioactive pulse-chase using ^3H-leucine. […] Samples were centrifuged at 20,000×g for 20 min, 4° C., and the radioactivity was measured in 5 ml of scintillation cocktail using a Beckman LS 1701 liquid scintillation counter (Beckman Instruments). Precipitated protein pellets were extracted in 200 μl of Na deoxycholate, 0.1 M NaOH, and radioactivity was determined. Percent proteolysis was calculated as described in detail elsewhere (Kaushik et al. Methods Enzymol. 452: 297, 2009). […]

levels of GCase polypeptide (GCase polypeptide): increased
SMILES: OC[C@H]1CNC[C@@H](O)[C@@H]1O [IFG, isofagomine]
Proteolysis rate, fold increase compared to controls [1]: 3 fold
